Experiments:
[1] = system: chronic rhinosinusitis; assay: double-blind placebo-controlled clinical trial in chronic rhinosinusitis; type: in vivo, human; conditions: 625 mg terbinafine base equivalent as hydrochloride orally once daily for 6 weeks, versus placebo, patients
Method: A prospective, double-blind, parallel-group, multi-center, placebo-controlled study comparing the safety and efficacy of 625 mg of terbinafine base equivalent as hydrochloride daily, or a molar equivalent in other acid addition salt or free base form, for 6 weeks, versus placebo in the treatment of chronic rhinosinusitis is performed. The study duration is a total of 18 weeks and consists of three periods: a) screening (3 weeks, from week −3 to −1); b) treatment (6 weeks, from baseline of treatment week to week +6); and c) follow-up assessment (9 weeks, from week +7 to +15).
Sixty patients, male and female, between the age of 18 and 65 years, are randomized to receive six weeks of terbinafine therapy or placebo.
Additional inclusion criteria for admission to the study is as follows: • Patients with signs and symptoms of chronic non-invasive rhinosinusitis (CRS) for at least 3 months prior to screening. […]

[2] = system: molds and dimorphic fungi, pathogenic yeasts of the genera Pityrosporum, Candida and Rhodotorula; conditions: many pathogenic yeasts (Pityrosporum, Candida, Rhodotorula); cited from earlier work
[3] = system: ergosterol biosynthesis (squalene epoxidase); conditions: blocks squalene epoxidase; cited from earlier work

SMILES: CN(C/C=C/C#CC(C)(C)C)Cc1cccc2ccccc12 [Terbinafine]
- efficacy relative to primary (CT total opacification score) and secondary variables [1]: therapeutically effective regimen
- activity in vitro [2]: active in vitro
- inhibition of ergosterol biosynthesis [3]: potent inhibitor

From patent publication US20050209339A1, “Methods for the treatment of sinusitis” (priority 2002, published 2005)
